Measurements published in patent US12458647B2, “Macrocyclic derivative and use thereof” (Guangzhou Joyo Pharmatech Co., Ltd., priority 2022, dated 2025).

Experiments:
AsPC-1 cells = assay: In vitro AsPC-1 cell proliferation experiment (10 days, 3D CellTiter-Glo); assay type: cell-based; conditions: 10 days culture
Procedure: RPMI1640 medium, penicillin/streptomycin antibiotics were purchased from Gibco, and fetal bovine serum was purchased from Hyclone. 3D CellTiter-Glo (cell viability chemiluminescent detection reagent) reagent was purchased from Promega. The AsPC-1 cell line was purchased from ATCC, Envision multilabel plate reader (PerkinElmer).
AsPC-1 cells were seeded in an ultra-low adsorption 96-well U-shaped plate, with 80 μL of cell suspension per well, containing 1,000 AsPC-1 cells. The plate was incubated overnight in a carbon dioxide incubator.
The test compound was diluted by 5-fold to 8 concentrations with a pipette, i.e., from 2 mM to 25.6 nM and replicate wells were set up for the experiment. 78 μL of culture medium was added to the intermediate plate, then 2 μL of the gradient diluted compound was transferred into each well of the intermediate plate according to the corresponding position. After mixing well, 20 μL of each well was transferred to the cell plate. […] Another cell plate was prepared, and the signal value was read as the maximum value (the maximum value in the following equation) on the day of dosing for data analysis.
100 μL of cell viability chemiluminescent detection reagent was added to the cell plate and incubated at room temperature for 30 minutes to stabilize the luminescence signal. A multilabel plate reader was used for reading. […]

[1] = Pharmacokinetic study in rats; assay type: in vivo; conditions: male SD rats; for AUC0-last / Cl / T1/2 / Vd / Cmax / TMax: whole blood
Procedure: To evaluate the pharmacokinetic behavior of the compounds of the present disclosure in male SD rats.
The compounds to be tested were dissolved in the vehicle (5% DMSO/10% solutol/85% water). Four male SD rats were divided into 2 groups, with 2 rats in each group. Group 1 rats were administered a single intravenous bolus injection (i.v.) of the compounds at a dose of 1 mg/kg. Group 2 rats were administered a single dose of the compounds by gavage (p.o.) at a dose of 10 mg/kg. Whole blood samples were collected at 0.083 (intravenous bolus group only), 0.25, 0.5, 1, 2, 4, 8 and 24 hours after dosing. The LC-MS/MS method was used to determine the concentration of the test compound in whole blood samples.

LOVO cells = assay: In vitro cell proliferation experiment (5 days), LOVO; assay type: cell-based; conditions: read-out: Inhibitory Activity IC50
Procedure: (§1) RPMI 1640 medium, DMEM, Ham's F12 medium, F12K medium, IMDM and penicillin/streptomycin antibiotics were purchased from Gibco, fetal bovine serum was purchased from Hyclone, Envision multilabel plate reader (PerkinElmer). […]
(§2) The test compound was diluted by 5-fold to 8 concentrations with a pipette, i.e., from 2 mM to 25.6 nM, and replicate wells were set up for the experiment. […] Another cell plate was prepared, and the signal value was read as the maximum value (the maximum value in the following equation) on the day of dosing for data analysis.
(§3) 50 μL of cell viability chemiluminescent detection reagent was added to the cell plate and incubated at room temperature for 30 minutes to stabilize the luminescence signal. A multilabel plate reader was used for reading. […]

LU99 cell line = assay: In vitro cell proliferation experiment (5 days), LU99; assay type: cell-based; conditions: LU99, 5 days; read-out: Inhibitory Activity IC50
Procedure: as §1, §2, §3

| IC50 (AsPC-1 cells) [nM] | AUC0-last ([1]; i.v. 1 mg/kg) [µM·h] | Cl ([1]; i.v. 1 mg/kg) [mL/min/kg] | T1/2 ([1]; i.v. 1 mg/kg) [h] | Vd ([1]; i.v. 1 mg/kg) [L/kg] | F(%) ([1]; p.o. 10 mg/kg) | AUC0-last ([1]; p.o. 10 mg/kg) [µM·h] | Cmax ([1]; p.o. 10 mg/kg) [nM] | T1/2 ([1]; p.o. 10 mg/kg) [h] | TMax ([1]; p.o. 10 mg/kg) [h] | IC50 (LOVO cells) [nM] | SMILES | IC50 (LU99 cell line) [nM] |
| --- | --- | --- | --- | --- | --- | --- | --- | --- | --- | --- | --- | --- |
| 1 | 4.125 | 4.6 | 5.7 | 1.9 | 38 | 15.213 | 1620 | 6.1 | 1.5 | 2.8 | CCn1c(-c2cc(N3CCN(C)CC3)cnc2C(C)OC)c2c3cc(ccc31)-c1csc(n1)CC(NC(=O)C1C(C)C1C)C(=O)N1NC(C(=O)OCC(C)(C)C2)C2CC1C2 (single isomer, unassigned) [Compound 6A] | 8.7 |
|  | 4.95 | 3.6 | 8.5 | 2.5 | 34.2 | 17.069 | 1460 | 7.3 | 4.0 | 5.9 | CCn1c(-c2cc(N3CCN(C)CC3)cnc2C(C)OC)c2c3cc(ccc31)-c1csc(n1)CC(NC(=O)C1CC1C)C(=O)N1NC(C(=O)OCC(C)(C)C2)C2CC1C2 (single isomer, unassigned) [Compound 7A] |  |
